The text below walks through data of patent US20220257619A1, “LONG-ACTING FORMULATIONS OF TENOFOVIR ALAFENAMIDE” (Gilead Sciences, Inc., priority 2019, published 2022).

≈ marks a conversion by molar mass, not a printed value. Where two headings read alike, the source gives them in different places. Marks after values point to notes of the source that are not given here.

Data set [1] in a line: physchem. The note with it: 37 °C, organic solvent or mixture, thermodynamic from solid.
Method: Briefly, samples were prepared by mixing active agent and solvent and were tested at various time points after mixing and after storage at various temperatures. The samples were tested for the solubility of the active agent (mg/mL), calculated as the free base equivalent. Each data point is the average of two replicates unless otherwise specified. The data points with an asterisk (*) were taken at 4 days, as opposed to 5 days.
The mark [2] stands for this setting: solvent BB, 37° C., asterisk: taken at 4 days, as opposed to 5 days.

For `CC(C)OC(=O)[C@H](C)N[P@](=O)(CO[C@H](C)Cn1cnc2c(N)ncnc21)Oc1ccccc1` [TAF Free base, (S)-isopropyl-2-(((S)-((((R)-1-(6-amino-9H-purin-9-yl)propan-2-yl)oxy)methyl)(phenoxy)phosphoryl)amino)propanoate], the solubility at 1 day in data set [1] (ACN) worked out at 15 mg/mL (≈ 31.5 mM); in data set [1] (DCM) it was 146 mg/mL (≈ 306 mM); in data set [1] (DMSO), 96 mg/mL (≈ 201 mM); in data set [1] (NMP), 96 mg/mL (≈ 201 mM); in data set [1] (PC), 15 mg/mL (≈ 31.5 mM). For the same compound, the solubility at 5 days in data set [1] (ACN) is 13 mg/mL (≈ 27.3 mM); in data set [1] (DCM), 384 mg/mL (≈ 806 mM); in data set [1] (DMSO), 182 mg/mL (≈ 382 mM); in data set [1] (NMP), 161 mg/mL (≈ 338 mM); in data set [1] (PC), 26 mg/mL (≈ 54.6 mM). Moreover, under setting [2], the “Solubility (mg/mL, Calculated as Free Base Equivalent)” value is 5.0 mg/mL.
As to “tenofovir alafenamide hemifumarate [TAF Hemifumarate]”, the “Solubility (mg/mL, Calculated as Free Base Equivalent)” value (solvent ACN, 37° C./5 days) is 11 mg/mL; the “Solubility (mg/mL, Calculated as Free Base Equivalent)” value under setting [2] is given as 3.9* mg/mL; the “Solubility (mg/mL, Calculated as Free Base Equivalent)” value (solvent DCM, 37° C./5 days) is 97 mg/mL; the “Solubility (mg/mL, Calculated as Free Base Equivalent)” value (solvent DMSO, 37° C./5 days) is 132 mg/mL; the “Solubility (mg/mL, Calculated as Free Base Equivalent)” value (solvent NMP, 37° C./5 days) was 160 mg/mL; the “Solubility (mg/mL, Calculated as Free Base Equivalent)” value (solvent PC, 37° C./5 days) was 22 mg/mL.

A word on the solubility: it is how much of the substance goes into solution per volume.
